Data: patent publication US20050130252A1, “Stabilized susceptibility tests of aerobic pathogens” (Wyeth Holdings Corporation, priority 2003, published 2005)
Converted amounts (≈) assume the structure as drawn. Where two headings read alike, the source gives them in different places.

Legend:
P. aeruginosa ATCC 27853 = test: Broth microdilution MIC; format: cell-based, Pseudomonas aeruginosa; settings: Pseudomonas aeruginosa, ATCC27853, read-out: Minimal Inhibitory Concentration, P. aeruginosa ATCC 27853
Procedure: (§1) The process for preparing susceptibility test medium are the following steps: • a. Preparing Mueller Hinton Broth II medium by adding 22 grams powdered media to 1.0 liter distilled water; • b. Autoclaving (121° C., 15 psi, 15 minutes) and cooling the medium; • c. Adding Oxyrase® up to about 10% final volume and keeping at 35-37° C. in an incubator for 30 minutes; • d. Adding about 50 μL to each well of a 96 well microtiter plate; • e. Weighing drug and adding broth to drug to bring up to about (standard 128 μg/ml); • f. Adding 50 μL of the drug to the first column of the titer plate; • g. Diluting by two-fold serial diluting across or down the plate. • h. Preparing a Prompt™ inoculum at 10^8 CFU/ml; • i. Diluting inoculum 1:100 in the broth at […] in 9.9 ml (1:100) is 10^6 colony forming units (CFU) forming the adjusted inoculum; • j. Adding 50 μL of the adjusted inoculum to the wells of the microtiter plate; • k. Incubating the plates at 35-37° C. for 18-22 hours; and • l. Reading, with the unaided eye, the MIC.
(§2) The in vitro activities of tigecycline and control antibiotics were determined by the broth microdilution method as recommended by the NCCLS. (National Committee for Clinical Laboratory Standards, 2003. Methods for Dilution Antimicrobial Susceptibility Tests for Bacteria That Grow Aerobically; Approved Standards: M7-A6, Sixth ed, vol. 23., National Committee for Clinical Laboratory Standards Wayne, Pa.) was used for the standard procedures. MBH with 5% lysed horse blood was used for testing S. pneumoniae and Haemophilus Test Medium was used for testing H. influenzae. Oxyrase® (Oxyrase Inc, Mansfield, Ohio) was used according to the manufacturer's instructions by adding 1 ml of Oxyrase® to 50 ml of media. Media age studies were performed by preparing MHB in multiple flasks, then storing the media under various conditions. MICs were usually performed in duplicate on each day of testing. Storage under anaerobic conditions was conducted in an anaerobic chamber (MACS MG 1000, Don Whitley Scientific LTD). The pH of the media was determined by pH meter (Corning 430). A comparison of the in vitro activity of tigecycline by agar and broth dilution methodolgies with and without Oxyrase® against clinical isolates is shown in Table 1.

H. influenzae ATCC 49247 = test: Broth microdilution MIC; format: cell-based
Procedure: as §1
as §2, with “MBH with 5% lysed horse blood was used for testing S. pneumoniae and Haemophilus Test Medium was used for testing H. influenzae.” left out

[1] = system: clinical isolates and strains expressing various tetracycline resistance determinants; test: Broth microdilution MIC, panel of clinical isolates and tetracycline-resistant strains taken together; format: cell-based; settings: Table 5 panel
Procedure: as §2, with “1. […]” for “1.”

[2] = HPLC analysis of early peak formation of tigecycline in water and MHB; format: physicochemical; settings: stored overnight at RT
Procedure: To test the hypothesis, solutions of tigecycline were prepared in water, fresh MHB and aged MHB. The solutions were stored overnight at RT, then subjected to HPLC analysis to look for degradation of tigecycline. […] This confirmed that the formation of early peak of tigecycline was accelerated in the aged media.
In experiment 1 three experimental test samples were examined for early peak formation of tigecycline. In experiment 2 six experimental test samples were evaluated to determine the early peak of tigecycline which occurs in 24 hours. Results are as listed below:
Tigecycline at a concentration of 1 mg/mL in each of the above vehicles was prepared, assayed at time zero and 1 day @ RT.
The HPLC parameters are listed below: • HPLC column: Luna C18(2), 5 μm, 4.6×150 mm • Detection: UV @ 250 nm • Flow Rate: 1.5 mL/min • Injection volume=30 μL • Mobile Phase A: 6.8 g KH2PO4 in 950 mL water, pH to 6.2 with KOH, mixed with 50 mL acetonitrile • Mobile Phase B: 6.8 g KH2PO4 in 500 mL water, pH to 6.2 with KOH, mixed with 500 mL acetonitrile

[3] = Table 8, Mueller Hinton Broth + Oxyrase, n = 240
[4] = Table 8, Mueller Hinton Broth, n = 210

CN(C)c1cc(NC(=O)CNC(C)(C)C)c(O)c2c1C[C@H]1C[C@H]3[C@H](N(C)C)C(O)=C(C(N)=O)C(=O)[C@@]3(O)C(O)=C1C2=O [Tigecycline, tigecycline]
MIC (P. aeruginosa ATCC 27853; 2% Oxyrase): 8 mg/L (≈ 13.7 µM) | MIC (P. aeruginosa ATCC 27853; No Oxyrase): 16 mg/L (≈ 27.3 µM) | Number of Occurrences of MIC 0.008 ug/ml (H. influenzae ATCC 49247; [3]): 2 | Number of Occurrences of MIC 0.016 ug/ml (H. influenzae ATCC 49247; [3]): 1 | Number of Occurrences of MIC 0.06 ug/ml (H. influenzae ATCC 49247; [3]): 4 | Number of Occurrences of MIC 0.12 ug/ml (H. influenzae ATCC 49247; [3]): 156 | Number of Occurrences of MIC 0.25 ug/ml (H. influenzae ATCC 49247; [3]): 75 | Number of Occurrences of MIC 0.5 ug/ml (H. influenzae ATCC 49247; [3]): 2 | Number of Occurrences of MIC 0.12 ug/ml (H. influenzae ATCC 49247; [4]): 13 | Number of Occurrences of MIC 0.25 ug/ml (H. influenzae ATCC 49247; [4]): 156 | Number of Occurrences of MIC 0.5 ug/ml (H. influenzae ATCC 49247; [4]): 25 | Number of Occurrences of MIC 1 ug/ml (H. influenzae ATCC 49247; [4]): 10 | Number of Occurrences of MIC 2 ug/ml (H. influenzae ATCC 49247; [4]): 6 | MICs in fresh media lower than in aged media [1]: 1 to 3 dilutions | Amount of the early peak (HPLC) relative to the amount in water (ratio) ([2]; tigecycline solution in aged MHB): about 35 | Amount of the early peak (HPLC) relative to the amount in water ([2]; tigecycline solution in fresh MHB): about 12 times
